Earlier results, collected in paper PMC7465636 (Biomolecules, 2020).

Legend:
P. falciparum Dd2 = conditions: cited from earlier work
P. falciparum D10 = conditions: cited from earlier work
P. falciparum W2 = conditions: cited from earlier work
[1] = test system: knockout of P. falciparum PfSR25; parameters: method as in PMID 28842684; conditions: knockout versus wild type; cited from earlier work

Which results are given for CN(C)C(Cn1cc(-c2ccccc2)nn1)NCc1ccccc1Cl (stereo not drawn) [II]?
IC50 (P. falciparum Dd2): 13 µM; IC50 (P. falciparum D10): 11.3 µM

For O=C(Cn1cc(CNc2ccnc3cc(Cl)ccc23)nn1)N1CCCCC1 [IV], which IC50 (P. falciparum Dd2) is on record?
The IC50 was 0.0434 µM.

And the IC50 (P. falciparum D10)?
Its IC50 is 0.0136 µM.

Which IC50 (P. falciparum W2) does the source give for COc1cc([N+](=O)[O-])ccc1-n1cc(COC2=C(CC=C(C)C)C(=O)C=C(C)C2=O)nn1 [V] here?
The IC50 was 4.1 µM.

Which “susceptibility of PfSR25 knockout parasite to the drug” value [1] does the source give for Clc1ccc2c(N3CCN(CCCN4CCN(c5ccnc6cc(Cl)ccc56)CC4)CC3)ccnc2c1 [piperaquine] here?
The value was “more susceptible”.
